Assay results as given in article PMC3454511 (The Journal of organic chemistry, 2012).
Converted amounts (≈) assume the structure as drawn.

Columns and labels:
[1] = Plasma stability, human; conditions: % parent remaining at 5 h
[2] = Microsomal stability, human; conditions: % parent remaining at 1 hour
[3] = Plasma stability, mouse; conditions: % parent remaining at 5 h
[4] = Plasma protein binding by rapid-equilibrium dialysis, human; conditions: 37 °C for 5 h
[5] = Plasma protein binding by rapid-equilibrium dialysis, mouse; conditions: 37 °C for 5 h
[6] = Microsomal stability, mouse; conditions: % parent remaining at 1 hour
[7] = physchem; conditions: thermodynamic from solid
[8] = Bidirectional Caco-2 permeability; format: in vitro ADME; conditions: human, Caco-2
[9] = BBB parallel artificial membrane permeability assay; format: in vitro ADME; conditions: for Papp: PAMPA; for BBB PAMPA: Pe
[10] = Solubility in PBS and H2O, dry powder, 24 hour timepoint
[11] = system: Caco-2 monolayer; assay: Bidirectional Caco-2 permeability; format: in vitro ADME; conditions: for Caco-2 A-B: A-B direction; for Caco-2 B-A: B-A direction

SMILES	plasma stability human [1]	microsomal stability human [2]	plasma stability mouse [3]	protein binding human [4]	protein binding mouse [5]	microsomal stability mouse [6]	solubility at 24 h ([7]; PBS, aqueous buffer)	solubility at 24 h ([7]; water)	Papp A→B [8]	Papp B→A [8]	Papp [9]	solubility H2O [10]	solubility PBS [10]	Caco-2 A-B [11]	Caco-2 B-A [11]	BBB PAMPA [9]
CCCN1C2CN(Cc3ccc(F)cc3)CC1C2c1ccccc1 (centres unmarked) [27d, 3-(4-Fluorobenzyl)-7-phenyl-6-propyl-3,6-diazabicyclo[3.1.1]heptane]	71 % remaining	55 % remaining	90 % remaining	98 % bound	98 % bound	42 % remaining	335 µM (≈ 109 µg/mL)	346 µM (≈ 112 µg/mL)	14 ×10⁻⁶ cm/s	7 ×10⁻⁶ cm/s	111 ×10⁻⁶ cm/s	–	–	–	–	–
CS(=O)(=O)N1CC(=O)N2[C@H](CO)[C@H](c3ccccc3)[C@@H]2C1 [28c, (6R,7R,8S)-8-(Hydroxymethyl)-4-(methylsulfonyl)-7-phenyl-1,4-diazabicyclo [4.2.0] octan-2-one]	78 % remaining	104 % remaining	106 % remaining	−4.6 % bound	−2.3 % bound	100 % remaining	> 500 µM	–	17 ×10⁻⁶ cm/s	20 ×10⁻⁶ cm/s	–	–	–	–	–	–
CCCN1[C@H](CO)[C@H](c2ccccc2)C12CN(C)C2 [30b, (2S,3S)-1-Propyl-2-hydroxymethyl-3-phenyl-6-methyl-1,6-diazaspiro[3.3]heptane]	86 % remaining	99 % remaining	106 % remaining	28 % bound	−6.0 % bound	98 % remaining	> 500 µM	–	33 ×10⁻⁶ cm/s	56 ×10⁻⁶ cm/s	–	–	–	–	–	–
CCCN1C(CO)C2c3ccccc3NCC21 (racemic) [31a, ((±)-2-Propyl-1,2,2a,3,4,8b-hexahydroazeto[2,3-c]quinolin-1-yl) methanol]	97 % remaining	85 % remaining	108 % remaining	10 % bound	22 % bound	94 % remaining	–	–	–	–	–	495 µM (≈ 115 µg/mL)	>500 µM	43 10^−6 cm.s^−1	29 10^−6 cm.s^−1	31 10^−6 cm s^−1
CN1CCCCN2[C@H](CO)[C@H](c3ccccc3)[C@@H]2C1 [29c, ((8R,9R,10S)-6-Methyl-9-phenyl-1,6-diazabicyclo[6.2.0]decan-10-yl) methanol]	82 % remaining	96 % remaining	78 % remaining	1 % bound	5 % bound	97 % remaining	494 µM (≈ 129 µg/mL)	> 500 µM	14 ×10⁻⁶ cm/s	21 ×10⁻⁶ cm/s	9 ×10⁻⁶ cm/s	–	–	–	–	–
CCCN1[C@H](CO)[C@H](c2ccccc2)C12CNC2 [30a, (2S,3S)-1-Propyl-2-hydroxymethyl-3-phenyl-1,6-diazaspiro[3.3]heptane]	106 % remaining	95 % remaining	108 % remaining	–	–	93 % remaining	> 500 µM	–	3 ×10⁻⁶ cm/s	12 ×10⁻⁶ cm/s	–	–	–	–	–	–
CCCN1C2CNCC1C2c1ccccc1 (centres unmarked) [27a, 7-Phenyl-6-propyl-3,6-diazabicyclo[3.1.1]heptane]	102 % remaining	94 % remaining	103 % remaining	49 % bound	35 % bound	79 % remaining	> 500 µM	> 500 µM	30 ×10⁻⁶ cm/s	22 ×10⁻⁶ cm/s	4 ×10⁻⁶ cm/s	–	–	–	–	–
CCCN1[C@H](CO)[C@H](c2ccccc2)C12CN(C(C)=O)C2 [30c, (2S,3S)-1-Propyl-2-hydroxymethyl-3-phenyl-6-acetyl-1,6-diazaspiro[3.3]heptane]	93 % remaining	94 % remaining	97 % remaining	37 % bound	32 % bound	89 % remaining	> 500 µM	–	29 ×10⁻⁶ cm/s	35 ×10⁻⁶ cm/s	–	–	–	–	–	–
OC[C@@H]1[C@H](c2ccccc2)[C@@H]2CNCCCCN12 [29b, ((8R,9R,10S)-9-Phenyl-1,6-diazabicyclo[6.2.0]decan-10-yl)methanol]	99 % remaining	86 % remaining	94 % remaining	8 % bound	9 % bound	89 % remaining	> 500 µM	491 µM (≈ 121 µg/mL)	2 ×10⁻⁶ cm/s	8 ×10⁻⁶ cm/s	6 ×10⁻⁶ cm/s	–	–	–	–	–
CCCN1[C@@H]2COc3ccccc3[C@@H]2[C@@H]1CNC(=O)c1ccccc1 [32a, N-(((1R,2aS,8bR)-2-Propyl-2,2a,3,8b-tetrahydro-1H-chromeno[3,4-b]azet-1-yl)methyl) benzamide]	94 % remaining	0 % remaining	102 % remaining	95 % bound	91 % bound	0 % remaining	43 µM (≈ 14.5 µg/mL)	–	59 ×10⁻⁶ cm/s	52 ×10⁻⁶ cm/s	–	–	–	–	–	–
CN1CC(=O)N2[C@H](CO)[C@H](c3ccccc3)[C@@H]2C1 [28a, (6R,7R,8S)-8-(Hydroxymethyl)-4-methyl-7-phenyl-1,4-diazabicyclo[4.2.0]octan-2-one]	99 % remaining	112 % remaining	116 % remaining	–	–	104 % remaining	> 500 µM	–	43 ×10⁻⁶ cm/s	31 ×10⁻⁶ cm/s	–	–	–	–	–	–
CCCN1C(CO)C2c3ccccc3N(S(C)(=O)=O)CC21 (racemic) [31c, ((±)-4-(Methylsulfonyl)-2-propyl-1,2,2a,3,4,8b-hexahydroazeto[2,3-c]quinolin-1-yl) methanol]	101 % remaining	69 % remaining	107 % remaining	45 % bound	50 % bound	34 % remaining	–	–	–	–	–	>500 µM	478 µM (≈ 148 µg/mL)	56 10^−6 cm.s^−1	64 10^−6 cm.s^−1	35 10^−6 cm s^−1
O=C1CNC[C@H]2[C@@H](c3ccccc3)[C@@H](COC(c3ccccc3)(c3ccccc3)c3ccccc3)N12 [28b, (6R,7R,8S)-7-Phenyl-8-((trityloxy)methyl)-1,4-diazabicyclo[4.2.0]octan-2-one]	–	–	–	–	–	–	> 500 µM	–	12 ×10⁻⁶ cm/s	17 ×10⁻⁶ cm/s	–	–	–	–	–	–
CCCN1[C@@H]2COc3ccccc3[C@@H]2[C@@H]1CNS(C)(=O)=O [32b, N-(((1R,2aS,8bR)-2-Propyl-2,2a,3,8b-tetrahydro-1H-chromeno[3,4-b]azet-1-yl)methyl) methanesulfonamide]	97 % remaining	73 % remaining	105 % remaining	37 % bound	37 % bound	63 % remaining	453 µM (≈ 141 µg/mL)	–	66 ×10⁻⁶ cm/s	57 ×10⁻⁶ cm/s	–	–	–	–	–	–
